The record followed here is publication PMC12675575, “A BRET biosensor for measuring uncompetitive engagement of PRMT5 complexes in cells” (Nature Communications, 2025).

The target of this experiment is T1, PRMT9 (Homo sapiens, UniProt Q6P2P2).
T1 construct: host or cells: HEK293
T1 sequence (Q6P2P2 1-845): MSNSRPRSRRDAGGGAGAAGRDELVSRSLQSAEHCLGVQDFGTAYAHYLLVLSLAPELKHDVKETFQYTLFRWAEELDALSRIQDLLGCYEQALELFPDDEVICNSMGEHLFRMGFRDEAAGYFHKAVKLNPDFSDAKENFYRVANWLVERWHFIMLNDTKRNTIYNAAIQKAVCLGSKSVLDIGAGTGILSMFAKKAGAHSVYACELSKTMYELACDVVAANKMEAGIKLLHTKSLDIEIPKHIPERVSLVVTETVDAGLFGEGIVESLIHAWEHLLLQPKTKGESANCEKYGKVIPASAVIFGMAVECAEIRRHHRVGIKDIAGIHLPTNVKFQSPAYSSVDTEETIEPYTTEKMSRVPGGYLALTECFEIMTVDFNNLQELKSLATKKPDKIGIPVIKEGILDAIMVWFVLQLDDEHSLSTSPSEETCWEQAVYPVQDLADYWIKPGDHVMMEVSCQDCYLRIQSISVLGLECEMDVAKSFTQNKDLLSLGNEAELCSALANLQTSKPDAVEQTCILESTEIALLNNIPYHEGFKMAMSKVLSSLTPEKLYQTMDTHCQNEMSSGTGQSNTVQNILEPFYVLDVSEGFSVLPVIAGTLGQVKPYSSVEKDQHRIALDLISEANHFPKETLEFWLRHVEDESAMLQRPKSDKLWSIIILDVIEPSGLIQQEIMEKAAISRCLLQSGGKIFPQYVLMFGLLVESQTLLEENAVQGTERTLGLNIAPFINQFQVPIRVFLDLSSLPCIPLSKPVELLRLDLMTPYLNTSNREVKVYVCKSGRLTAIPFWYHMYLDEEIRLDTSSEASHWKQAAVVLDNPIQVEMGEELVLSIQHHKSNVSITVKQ
The experiment is described as follows: CBH-002 affinity curve, HEK293, PRMT9-NL fusion. Type of experiment: cell-based. Particulars: for BRET, CBH-002 + DMSO / BRET, CBH-002 + GSK3326595: Figure S2D PRMT9-NL, log([CBH-002]). More on the design: BRET, CBH-002 + DMSO / BRET, CBH-002 + GSK3326595: unit not given here. The procedure: HEK293 cells (ATCC) were cultured in DMEM (Thermo Fisher) + 10% (v/v) FBS (Seredigm), and HCT116 cells (Horizon Discovery, #PAR-034 and #R02-033) were cultured in McCoy’s 5A (Thermo Fisher) + 10% FBS, with incubation in a humidified, 37 °C/5% CO2 incubator. Cells were split 1–3 days prior to performing experiments and used at roughly 80% confluency. […] Cells were transfected according to the manufacturer’s protocol using FuGENE HD (Promega). NanoLuc fusion DNA was diluted into Transfection Carrier DNA (Promega) in Opti-MEM at a ratio of 1:9 (mass/mass), and FuGENE HD was added at a ratio of 1:3 (μg DNA:μL lipid). For experiments using WDR77, untagged WDR77 DNA (Promega) was used in place of Carrier DNA. Formed complexes were combined with cells resuspended to a density of 2 × 10^5 cells/mL in Opti-MEM + 1% FBS at a ratio of 1:20 (vol:vol). Cells were plated into a flask and incubated at 37 °C in a humidified 5% CO2 atmosphere for 18–24 h, before being lifted and seeded into 96-well non-binding surface-treated plates (Corning). Cells were seeded at a density of 2 × 10^5 cells/mL in Opti-MEM + 1% FBS in 100 μL (96-well). The BRET probe CBH-002 was prepared first as a 100× stock in 100% DMSO (Sigma) and then diluted to a 20× stock in NanoBRET Tracer Dilution buffer (Promega). Test compounds were prepared as 1000× stocks in 100% DMSO and diluted to 10× stocks in Opti-MEM to prepare working stocks. […] NanoBRET Complete 3x Substrate was prepared by combining Nano-Glo Substrate and Extracellular NanoLuc Inhibitor in Opti-MEM, according to the manufacturer’s protocol (Promega). NanoBRET Complete 3× Substrate was added to cells and plates were measured on either a PheraSTAR FSX equipped with 450 nm (donor) and 610 nm (acceptor) filters, or a GloMAX Discover equipped with 450/8 nm BP (donor) and 600 nm LP (acceptor) filters, using a 0.3 s integration time.
EC50 values were obtained by fitting the BRET probe and compound affinity curves to a sigmoidal four-parameter fit model in Graphpad Prism:1 Y=Ymin+Ymax−Ymin/1+10^LogEC50−Xh where h is the Hill Slope.
Background: BRET reads energy transfer from a luciferase to a nearby fluorophore.

Several values for one entry are separate records, joined by “and”; a condition that tells them apart may be missing. Equal entries are not always repeated.

On to `O=C(CCc1ccc2n1[B-](F)(F)[N+]1=C(c3ccc[nH]3)C=CC1=C2)NCCCCC(=O)N1CCC(Nc2cc(C(=O)NC[C@H](O)CN3CCc4ccccc4C3)ncn2)CC1` [CBH-002], for which the “BRET, CBH-002 + DMSO” value by setting is: (uM 0.04576) 3.434 and 3.347 and 3.1287; (uM 0.52288) 4.122 and 5.87 and 4.53; (uM 1) 6.91 and 7.001 and 6.884; (uM -0.43136) 2.433 and 2.903 and 2.863; (uM -0.90849) 2.344 and 2.202 and 2.303; (uM -1.20952) 1.839 and 2.321 and 2.413. The “BRET, CBH-002 + DMSO” value (uM -1.68664) was 1.998 and 2.054 and 2.063; the “BRET, CBH-002 + DMSO” value (uM -1.98767) is 2.1788 and 2.218 and 2.268; the “BRET, CBH-002 + DMSO” value (uM -2.94191) is 1.888 and 2.124 and 2.713. The “BRET, CBH-002 + GSK3326595” value reads like this: (uM 0.04576) 3.008 and 3.39 and 2.997; (uM 0.52288) 5.212 and 4.497 and 4.8771; (uM 1) 6.307 and 7.343 and 6.276; (uM -0.43136) 2.897 and 2.374 and 2.8944; (uM -0.90849) 2.454 and 2.214 and 2.074; (uM -1.20952) 2.422 and 2.062 and 3.074. In addition, the “BRET, CBH-002 + GSK3326595” value is, setting by setting: (uM -1.68664) 2.126 and 2.181 and 2.003; (uM -1.98767) 2.04 and 1.965 and 2.075; (uM -2.46479) 2.072 and 1.988 and 1.944; (uM -2.94191) 1.993 and 2.159 and 2.4012. Besides, where the note is “HEK293, PRMT9-NL”, the “CBH-002 engagement at PRMT9” value is “did not show engagement”.
